Like-named read-outs stand apart in the source and are kept apart here.
Columns and labels:
A. niger 16404 = test: In vitro antifungal activity, MIC (modified Autotiter method); format: cell-based, Aspergillus niger; conditions: for MIC: Aspergillus niger, 16404, 20 h, read-out: MIC A. niger 16404
Procedure: (§1) The antibacterial and antifungal activity of representative examples of the compounds of Formula I was determined using a modification of the Autotiter method described by Goss, et al. Applied Microbiology 16 (9) 1,414-1,416 (1968) in which a 1,000 mcg./ml. solution of the test compound is prepared. To the first cup of the Autotray is added 0.1 ml. of the test solution. Activation of the Autotiter initiates a sequence of operations by which 0.05 ml. of the test compound solution is withdrawn from the cup by a Microtiter transfer loop and diluted in 0.05 ml. of sterile water. Following this operation, 0.05 ml. of inoculated double-strength semisynthetic medium (glucose) is added automatically to each cup. The overall operation results in final drug concentrations ranging from 500 to 0.06 mcg./ml. in twofold decrements. […] The compounds were thus tested as solutions against a variety of gram positive and gram negative bacteria including Staphylococcus aureus, Proteus mirabilis, Escherichia coli, Klebsiella pneumoniae, Pseudomonas aeruginosa, Streptococcus pyogenes, and against such fungi as Aspergillus niger, Candida albicans and Trichophyton mentagrophytes.

K. pneum. 39645 = test: In vitro antibacterial activity, MIC (modified Autotiter method); format: cell-based, Klebsiella pneumoniae; conditions: Klebsiella pneumoniae, 20 h, read-out: MIC K. pneum. 39645
Procedure: as §1

S. Aureus Smith = test: as above; format: cell-based, Staphylococcus aureus; conditions: Staphylococcus aureus, 20 h, read-out: MIC S. Aureus Smith
Procedure: as §1

P. mirab. MGH-1 = test: as above; format: cell-based, Proteus mirabilis; conditions: Proteus mirabilis, 20 h, read-out: MIC P. mirab. MGH-1
Procedure: as §1

Ps. aerug. MGH-2 = test: as above; format: cell-based, Pseudomonas aeruginosa; conditions: Pseudomonas aeruginosa, 20 h, read-out: MIC Ps. aerug. MGH-2
Procedure: as §1

T. menta. 9129 = test: In vitro antifungal activity, MIC (modified Autotiter method); format: cell-based, Trichophyton mentagrophytes; conditions: for MIC: Trichophyton mentagrophytes, 20 h, read-out: MIC T. menta. 9129
Procedure: as §1

S. pyogen. C203 = test: In vitro antibacterial activity, MIC (modified Autotiter method); format: cell-based, Streptococcus pyogenes; conditions: Streptococcus pyogenes, 20 h, read-out: MIC S. pyogen. C203
Procedure: as §1

E. coli Vogel = test: as above; format: cell-based, Escherichia coli; conditions: for MIC: Escherichia coli, 20 h, read-out: MIC E. coli Vogel
Procedure: as §1

E. coli AB1932-1 = test: as above; format: cell-based, Escherichia coli; conditions: for MIC: Escherichia coli, AB19321, 20 h, read-out: MIC E. coli AB1932-1
Procedure: as §1

E. coli 100/B22 = test: as above; format: cell-based, Escherichia coli; conditions: Escherichia coli, 100/B22, 20 h
Procedure: as §1

C. albicans Wisc. = test: In vitro antifungal activity, MIC (modified Autotiter method); format: cell-based, Candida albicans; conditions: Candida albicans, 20 h, read-out: MIC C. albicans Wisc.
Procedure: as §1

C. albicans 10231 = test: as above; format: cell-based, Candida albicans; conditions: Candida albicans, 10231, 20 h, read-out: MIC C. albicans 10231
Procedure: as §1

[1] = 18-20 hours at 37° C., read-out: MIC E. coli 100/B22

SMILES | MIC (K. pneum. 39645; 18-20 hours at 37° C.) | MIC (S. Aureus Smith; 18-20 hours at 37° C.) | MIC (P. mirab. MGH-1; 18-20 hours at 37° C.) | MIC (Ps. aerug. MGH-2; 18-20 hours at 37° C.) | MIC (S. pyogen. C203; 18-20 hours at 37° C.) | MIC (E. coli 100/B22; [1]) | MIC (C. albicans Wisc.; 18-20 hours at 37° C.) | MIC (C. albicans 10231; 18-20 hours at 37° C.) | MIC (A. niger 16404; 18-20 hours at 37° C.) | MIC (T. menta. 9129; 18-20 hours at 37° C.) | MIC (E. coli Vogel; 18-20 hours at 37° C.) | MIC (E. coli AB1932-1; 18-20 hours at 37° C.) | further results
Nc1cc[n+](CCCCCCCCCC[n+]2ccc(N)cc2)cc1 [II, 1,10-bis-(4-amino-1-pyridinium)decane dibromide, reference compound] | – | – | – | – | – | – | – | – | – | – | – | – | MIC (A. niger 16404): 125 µg/mL; MIC (K. pneum. 39645): 250 µg/mL; MIC (S. Aureus Smith): 7.8 µg/mL; MIC (P. mirab. MGH-1): > 500 µg/mL; MIC (Ps. aerug. MGH-2): 500 µg/mL; MIC (T. menta. 9129): 15.6 µg/mL; MIC (S. pyogen. C203): 7.8 µg/mL; MIC (E. coli Vogel): 62.5 µg/mL; MIC (E. coli AB1932-1): 31.3 µg/mL; MIC (E. coli 100/B22; read-out: MIC E. coli 100/B22, 18-20 hours at 37° C.): 62.5 µg/mL; MIC (C. albicans Wisc.): 62.5 µg/mL; MIC (C. albicans 10231): 250 µg/mL
CCCCCCNc1cc[n+](CCCCCCCCCCCC[n+]2ccc(NCCCCCC)cc2)cc1 [Example 8] | 1 µg/mL | 0.25 µg/mL | 7.8 µg/mL | 15.6 µg/mL | 1 µg/mL | 0.5 µg/mL | 1 µg/mL | 1 µg/mL | – | – | – | – | MIC A. niger 16404 (A. niger 16404; 18-20 hours at 37° C.): 7.8 µg/mL; MIC T. menta. 9129 (T. menta. 9129; 18-20 hours at 37° C.): 1.0 µg/mL; MIC E. coli Vogel (E. coli Vogel; 18-20 hours at 37° C.): 1.0 µg/mL; MIC E. coli AB1932-1 (E. coli AB1932-1; 18-20 hours at 37° C.): 1.0 µg/mL
CCCNc1cc[n+](CCCCCCCCCC[n+]2ccc(NCCC)cc2)cc1 [Example 30, 1,10-bis-[4-(propylamino)-1-pyridinium]decane dibromide] | > 62.5 µg/mL | 1.95 µg/mL | > 250 µg/mL | > 62.5 µg/mL | 3.9 µg/mL | > 62.5 µg/mL | 7.8 µg/mL | 15.6 µg/mL | 31.3 µg/mL | 1 µg/mL | > 62.5 µg/mL | > 62.5 µg/mL | –
Fc1ccc(Nc2cc[n+](CCCCCC[n+]3ccc(Nc4ccc(F)cc4)cc3)cc2)cc1 [Example 83B, 1,6-bis-[4-(p-fluorophenylamino)-1-pyridinium]hexane dibromide] | > 125 µg/mL | 15.6 µg/mL | > 125 µg/mL | > 62.5 µg/mL | 7.8 µg/mL | 15.6 µg/mL | 31.3 µg/mL | 31.3 µg/mL | 31.3 µg/mL | 31.3 µg/mL | 31.3 µg/mL | 15.6 µg/mL | –
CCCCCCCCCCCCNc1cc[n+](CCCCCCC[n+]2ccc(NCCCCCCCCCCCC)cc2)cc1 [Example 71, 1,7-bis-[4-(dodecylamino)-1-pyridinium]heptane dibromide] | > 62.5 µg/mL | 3.9 µg/mL | 62.5 µg/mL | 62.5 µg/mL | 7.8 µg/mL | 62.5 µg/mL | 62.5 µg/mL | 62.5 µg/mL | 62.5 µg/mL | 7.8 µg/mL | 62.5 µg/mL | 62.5 µg/mL | –
CCCCCCCCCCNc1cc[n+](CCCCCCCCCCCC[n+]2ccc(NCCCCCCCCCC)cc2)cc1 [Example 69, 1,12-bis-[4-(decylamino)-1-pyridinium]dodecane dibromide] | 31.3 µg/mL | 1.95 µg/mL | 15.6 µg/mL | 15.6 µg/mL | 3.9 µg/mL | 15.6 µg/mL | 15.6 µg/mL | 15.6 µg/mL | 15.6 µg/mL | 3.9 µg/mL | 7.8 µg/mL | 31.3 µg/mL | –
CCCCCCCNc1cc[n+](CCCC[n+]2ccc(NCCCCCCC)cc2)cc1 [Example 20, 1,4-bis-[4-(heptylamino)-1-pyridinium]butane dibromide] | > 125 µg/mL | 0.98 µg/mL | > 250 µg/mL | > 250 µg/mL | 0.49 µg/mL | 15.6 µg/mL | 15.6 µg/mL | 15.6 µg/mL | 15.6 µg/mL | 3.9 µg/mL | 31.3 µg/mL | 7.8 µg/mL | –
CCCCCCCCCCNc1cc[n+](CCCCCCC[n+]2ccc(NCCCCCCCCCC)cc2)cc1 [Example 65, 1,7-bis-[4-(decylamino)-1-pyridinium]heptane dibromide] | 7.8 µg/mL | 1 µg/mL | 3.9 µg/mL | 7.8 µg/mL | 1 µg/mL | 3.9 µg/mL | 15.6 µg/mL | 15.6 µg/mL | 7.8 µg/mL | 1.95 µg/mL | 3.9 µg/mL | 3.9 µg/mL | –
CCCCCCCCCNc1cc[n+](CCCCCCCCCCCC[n+]2ccc(NCCCCCCCCC)cc2)cc1 [Example 52, 1,12-bis-[4-(nonylamino)1-pyridinium]dodecane dibromide] | 3.9 µg/mL | 1.95 µg/mL | 3.9 µg/mL | 3.9 µg/mL | 1.95 µg/mL | 3.9 µg/mL | 7.8 µg/mL | 7.8 µg/mL | 15.6 µg/mL | 1.95 µg/mL | 3.9 µg/mL | 7.8 µg/mL | –
CCCCCCCCCNc1cc[n+](CCCCCCC[n+]2ccc(NCCCCCCCCC)cc2)cc1 [Example 49, 1,7-bis-[4-(nonylamino)-1-pyridinium]heptane dibromide] | 1.95 µg/mL | 0.5 µg/mL | 3.9 µg/mL | 15.6 µg/mL | 1 µg/mL | 1.95 µg/mL | 1.95 µg/mL | 1.95 µg/mL | 7.8 µg/mL | 1 µg/mL | 1 µg/mL | 1.95 µg/mL | –
CCCCCCCCCCNc1cc[n+](CCCCCCCCC[n+]2ccc(NCCCCCCCCCC)cc2)cc1 [Example 67, 1,9-bis-[4-(decylamino)-1-pyridinium]nonane dibromide] | 15.6 µg/mL | 1 µg/mL | 7.8 µg/mL | 7.8 µg/mL | 1.95 µg/mL | 3.9 µg/mL | 15.6 µg/mL | 31.3 µg/mL | 31.3 µg/mL | 3.9 µg/mL | 1.95 µg/mL | 7.8 µg/mL | –
CCCCCCCCCCCCNc1cc[n+](CCCCCCCCCC[n+]2ccc(NCCCCCCCCCCCC)cc2)cc1 [Example 74, 1,10-bis-[4-(dodecylamino)-1-pyridinium]decane dibromide] | > 62.5 µg/mL | 15.6 µg/mL | > 62.5 µg/mL | > 62.5 µg/mL | 15.6 µg/mL | > 62.5 µg/mL | > 62.5 µg/mL | > 62.5 µg/mL | > 62.5 µg/mL | 15.6 µg/mL | > 62.5 µg/mL | > 62.5 µg/mL | –
CCCCCCCCCCCCNc1cc[n+](CCCCCCCC[n+]2ccc(NCCCCCCCCCCCC)cc2)cc1 [Example 72, 1,8-bis-[4-(dodecylamino)-1-pyridinium]octane dibromide] | > 62.5 µg/mL | 7.8 µg/mL | 62.5 µg/mL | > 62.5 µg/mL | 15.6 µg/mL | > 62.5 µg/mL | 31.3 µg/mL | 31.3 µg/mL | > 62.5 µg/mL | 7.8 µg/mL | 31.3 µg/mL | 62.5 µg/mL | –
CCCCCCCCCNc1cc[n+](CCCCCCCCCC[n+]2ccc(NCCCCCCCCC)cc2)cc1 [Example 51, 1,10-bis-[4-(nonylamino)-1-pyridinium]decane dibromide] | 3.9 µg/mL | 1.95 µg/mL | 3.9 µg/mL | 3.9 µg/mL | 1.95 µg/mL | 3.9 µg/mL | 3.9 µg/mL | 3.9 µg/mL | 7.8 µg/mL | 1.95 µg/mL | 1.95 µg/mL | 3.9 µg/mL | –
